{
  "source": "paper PMC8300687",
  "about": "“A Fine-Tuned Lipophilicity/Hydrophilicity Ratio Governs Antibacterial Potency and Selectivity of Bifurcated Halogen Bond-Forming NBTIs” (Antibiotics, 2021)",
  "key": {"S. aureus DNA gyrase": {"molecular_target": "T1, S. aureus DNA gyrase (Staphylococcus aureus, UniProt P20831)", "T1 construct": "purchased Inspiralis (Norwich, UK)", "T1 sequence (P20831 whole entry)": "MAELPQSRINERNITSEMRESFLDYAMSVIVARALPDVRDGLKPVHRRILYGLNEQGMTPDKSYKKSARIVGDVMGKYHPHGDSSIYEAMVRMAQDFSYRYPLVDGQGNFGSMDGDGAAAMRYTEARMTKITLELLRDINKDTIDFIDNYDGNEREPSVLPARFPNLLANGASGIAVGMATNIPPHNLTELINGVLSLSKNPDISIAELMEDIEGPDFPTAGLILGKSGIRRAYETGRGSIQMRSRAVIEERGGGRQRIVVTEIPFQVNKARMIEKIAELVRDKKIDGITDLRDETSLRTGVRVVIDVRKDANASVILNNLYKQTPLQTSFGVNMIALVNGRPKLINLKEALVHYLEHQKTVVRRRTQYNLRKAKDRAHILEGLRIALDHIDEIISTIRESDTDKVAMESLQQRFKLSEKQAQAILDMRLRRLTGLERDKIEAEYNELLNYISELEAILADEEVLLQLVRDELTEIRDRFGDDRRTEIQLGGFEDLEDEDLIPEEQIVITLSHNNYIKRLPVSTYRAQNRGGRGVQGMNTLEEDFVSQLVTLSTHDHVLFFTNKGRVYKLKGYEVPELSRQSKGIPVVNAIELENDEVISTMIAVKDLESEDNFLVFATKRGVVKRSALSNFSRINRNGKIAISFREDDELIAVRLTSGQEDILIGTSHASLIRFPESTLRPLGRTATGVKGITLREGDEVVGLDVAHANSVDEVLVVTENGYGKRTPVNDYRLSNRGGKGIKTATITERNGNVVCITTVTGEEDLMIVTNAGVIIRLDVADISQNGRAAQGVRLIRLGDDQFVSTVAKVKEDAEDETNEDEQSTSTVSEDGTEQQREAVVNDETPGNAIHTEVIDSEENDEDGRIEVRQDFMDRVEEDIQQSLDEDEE", "T1 sequence (P0A0K8 whole entry partner)": "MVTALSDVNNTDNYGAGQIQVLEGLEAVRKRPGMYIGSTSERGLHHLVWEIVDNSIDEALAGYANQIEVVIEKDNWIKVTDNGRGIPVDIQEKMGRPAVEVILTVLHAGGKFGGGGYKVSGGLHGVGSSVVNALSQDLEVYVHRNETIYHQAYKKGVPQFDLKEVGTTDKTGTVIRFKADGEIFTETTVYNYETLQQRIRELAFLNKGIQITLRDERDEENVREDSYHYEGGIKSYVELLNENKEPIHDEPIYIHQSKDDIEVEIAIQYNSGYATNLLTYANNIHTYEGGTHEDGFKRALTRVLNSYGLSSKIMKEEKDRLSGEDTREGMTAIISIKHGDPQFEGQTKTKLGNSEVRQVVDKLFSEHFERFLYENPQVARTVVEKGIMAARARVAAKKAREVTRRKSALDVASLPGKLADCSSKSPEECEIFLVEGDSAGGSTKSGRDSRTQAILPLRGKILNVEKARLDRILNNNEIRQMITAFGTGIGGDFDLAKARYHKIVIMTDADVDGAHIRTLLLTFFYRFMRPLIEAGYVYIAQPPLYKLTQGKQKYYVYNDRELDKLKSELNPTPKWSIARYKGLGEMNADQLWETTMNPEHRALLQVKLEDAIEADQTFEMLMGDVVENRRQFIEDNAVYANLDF", "details": "cited from earlier work"}, "E. coli": {"system": "E. coli", "parameters": "method as in PMID 31140866", "details": "Figure 2, previous study ref 18; cited from earlier work"}, "S. aureus": {"system": "S. aureus", "parameters": "method as in PMID 31140866", "details": "Figure 2, previous study ref 18; cited from earlier work"}, "in vitro": {"assay": "in vitro", "details": "PAMPA", "procedure": "(§1) Prior to the measurements of solubility and permeability isocratic HPLC methods were developed. […] The individual method parameters for each compound are given in the Supplementary Materials Table S1.\nA 96-well precoated three-layer PAMPA plates (Corning® Gentest™ Pre-coated PAMPA Plate System, Corning, NY, USA) were used according to the manufacturer’s instructions and as described previously with 300 µL of the donor solutions in the bottom compartment and 200 µL of the acceptor solution (pH 7.4 PBS) in the upper compartment at 37 °C and a 4-h incubation time. The initial and end donor solutions were injected at a 5 µL injection volume. The initial donor solutions were also diluted 100-fold and injected at a 100 µL injection volume to serve as external references for the end acceptor solutions which were injected at the same injection volume. The permeability calculations were made with a manufacturer-provided Excel spreadsheet directly from the measured peak areas accounting for the relevant dilutions and injection volumes."}, "[1]": {"assay": "Equilibrium solubility at pH 6.8", "details": "37 °C, pH 6.8, aqueous buffer, thermodynamic from solid", "procedure": "as §1\nThe vials were then placed in a homogenizer (Next Advance Bullet Blender, Troy, NY, USA) for 5 min ad speed setting “2” after which they were kept in a thermostated shaker (Tehtnica HeatMix, Domel, Slovenia) at 37 °C and 1200 RPM for 24 h. […] Twenty µL of these solutions were injected for the HPLC analysis by the described methods (Supplementary Materials Table S1). External standards for calibration were made in a mobile phase with 5% acetonitrile in a range of 30–90 mg/L and injected at 20 µL injection volumes."}, "E. coli (ATCC 25922)": {"system": "E. coli (ATCC 25922)", "assay": "MIC broth microdilution, E. coli ATCC 25922", "type": "cell-based", "details": "Escherichia coli, ATCC25922; read-out: MIC E. coli (ATCC 25922)", "procedure": "(§2) Antimicrobial testing was carried out by the broth microdilution method in 96-well plate format following the Clinical and Laboratory Standards Institute (CLSI) guidelines and European Committee on Antimicrobial Susceptibility Testing (EUCAST) recommendations. Bacterial suspension of specific bacterial strain equivalent to 0.5 McFarland turbidity standard was diluted with cation-adjusted Mueller Hinton broth with TES (Thermo Fisher Diagnostic, Landsmeer, The Netherlands), to obtain a final inoculum of 10^5 CFU/mL. Compounds dissolved in DMSO and inoculum were mixed together and incubated for 18–20 h at 35 °C. Suspensions of Mycobacterium sp. were prepared into a tube of Middelbrook 7H9 broth supplemented with 5% OADC (Thermo Scientific, Trek Diagnostic Systems, West Sussex, UK) and incubated for at least 10 days. After incubation the minimal inhibitory concentration (MIC) values were determined by visual inspection as the lowest dilution of compounds showing no turbidity. Tetracycline was used as a positive control on every assay plate."}, "E. coli N43 (CGSC# 5583)": {"system": "E. coli N43 (CGSC# 5583)", "assay": "MIC broth microdilution, E. coli N43", "type": "cell-based", "details": "Escherichia coli, read-out: MIC E. coli N43 (CGSC# 5583)", "procedure": "as §2"}},
  "note": "Where two headings read alike, the source gives them in different places.",
  "data": [
    {"smiles": "COc1ccc2ncc(F)c(C[C@H](O)[C@@H]3CC[C@@H](NCc4cc5c(nn4)OCCS5)CO3)c2n1", "note": "[ACT3870424]", "values": [
      {"measurement": "IC50", "setting": "S. aureus DNA gyrase; Table S2, supplement ref 4", "result": 0.125, "unit": "µM"}
    ]},
    {"smiles": "COc1ccc2nccc(NC(=O)C3CCC(NCc4cnn(-c5ccccc5)c4)CC3)c2c1", "note": "(stereo not shown) [Compound 131]", "values": [
      {"measurement": "MIC E. coli", "setting": "E. coli", "result": 64, "unit": "µg/mL"},
      {"measurement": "MIC S. aureus", "setting": "S. aureus", "result": 2, "unit": "µg/mL"},
      {"measurement": "IC50", "setting": "S. aureus DNA gyrase; Table S2, supplement ref 1", "result": 0.83, "unit": "µM"}
    ]},
    {"smiles": "C[C@H]1O[C@@H](O[C@H]2[C@@H](O)C[C@H](O[C@H]3[C@@H](O)C[C@H](O[C@H]4CC[C@@]5(C)[C@H](CC[C@@H]6[C@@H]5C[C@@H](O)[C@]5(C)[C@@H](C7=CC(=O)OC7)CC[C@]65O)C4)O[C@@H]3C)O[C@@H]2C)C[C@H](O)[C@@H]1O", "note": "[Di goxin, digoxin, reference compound]", "values": [
      {"measurement": "PAMPA permeability classification [low/high]", "setting": "in vitro", "result": "int erm ediat e"},
      {"measurement": "Papp", "setting": "in vitro; pH 7.4", "result": 0.58, "unit": "×10⁻⁶ cm/s"},
      {"measurement": "solubility thermodynamic at 24 h", "setting": "[1]", "result": 52, "unit": "µg/mL"}
    ]},
    {"smiles": "O=c1ccc2ncc(=O)n3c2n1C[C@H]3CN1CCC(NCc2cc3c(cn2)OCCC3)CC1", "note": "[Gepotidacin, reference compound]", "values": [
      {"measurement": "MIC", "setting": "E. coli (ATCC 25922)", "result": 1, "unit": "µg/mL"},
      {"measurement": "MIC", "setting": "E. coli N43 (CGSC# 5583)", "result": 0.016, "unit": "µg/mL"}
    ]},
    {"smiles": "COCCc1ccc(OCC(O)CNC(C)C)cc1", "note": "(stereo not shown) [Metoprolol, metoprolol, reference compound]", "values": [
      {"measurement": "Papp at 4 h", "setting": "in vitro", "result": "> 2.7", "unit": "×10⁻⁶ cm/s"},
      {"measurement": "Papp at 4 h", "setting": "in vitro; pH 7.4", "result": 4.2, "unit": "×10⁻⁶ cm/s"},
      {"measurement": "solubility thermodynamic at 24 h", "setting": "[1]", "result": 30400, "unit": "µg/mL"}
    ]},
    {"smiles": "Cn1c(=O)c2[nH]cnc2n(C)c1=O", "note": "[Theophylli n, theophylline, reference compound]", "values": [
      {"measurement": "solubility thermodynamic at 24 h", "setting": "[1]", "result": 8220, "unit": "µg/mL"}
    ]}
  ]
}
